Results on 65 compounds are retold here after a melting point compilation (Tetko et al.; mined from patent text by program, amines drawn as free bases though some values may be those of a salt).

Each structure is given as a SMILES string. Where only a bound is given, the exact number is not on record here.

A word on the melting point: it is the temperature of the solid-liquid transition. Consider `CC(C)CNC(=O)CC1Sc2sc(S(N)(=O)=O)cc2NC1=O` (stereo not given), for which the melting point is > 250 °C.
As to `C=CC(C)(C)C(O)(COc1ccc(-c2ccccc2)cc1)Cn1cncn1` (stereo not given), the melting point was in the range of 85 to 87 °C.
In turn, `N#Cc1ccc(OCCCOc2ccc(-c3cc4ccc(C#N)cc4o3)cc2)cc1` showed a melting point of 208 to 210 °C.
`O=C(OCc1ccccc1)N1CCC2(CC1)CN(c1ccc(Cl)c(Cl)c1)C(=O)O2` came in with a melting point of 105 °C.
On to `O=C(NC(=O)c1c(Cl)cccc1Cl)Nc1cc(Cl)c(OC(F)(F)C(F)Cl)cc1Cl` (stereo not given), for which the melting point lay within 198 to 200 °C.
To `O=C(CSCCCCOc1ccccc1)NNC(=O)c1ccc(O)cc1` belongs 113 to 115 °C; to `CC(C)(C)Oc1cccc(Cl)c1C(=O)O`, 117 to 119 °C; to `CC(=O)n1c(C)c(-c2ccc(F)cc2)c2cccnc21`, 84 to 87 °C.
As for `CN(C)S(=O)(=O)c1ccc2c(c1)S(=O)(=O)NC(C(F)(F)F)=N2`, the figure is 240 to 242 °C; as for `C#CCNc1ccc([N+](=O)[O-])cc1C`, 121 to 123 °C; as for `CCNc1cccc2c1C(=O)c1cccc(NCC)c1C2=O`, 193 to 195 °C.
To `NNC(=O)C(Cl)(Cl)c1cccc(Cl)n1` belongs 198 to 200 °C; to `CS(=O)(=O)On1nnc2ccc([N+](=O)[O-])cc21`, 115 to 116 °C.
Turning to `c1ccc2c(c1)C(=NOCCN1CCOCC1)c1ccccc1C1CC21` (stereo not given), the melting point is 90 to 91 °C.
As for `CS(=O)(=O)c1ccc(C(CC2CCCC2)C(=O)Nc2ncc[nH]2)cc1[N+](=O)[O-]` (stereo not given), the figure is 243 to 244 °C.
On to `Cc1nc(C(=O)NC23CC4CC(CC(O)(C4)C2)C3)c(C)n1-c1ccccc1`, for which the melting point was in the range of 215 to 220 °C.
To `CCOC(=O)CC1=CC2C(CCC3(C)C(O)CCC23)c2ccc(O)cc21` (stereo not given) belongs 178 °C; to `CN(C)c1ccc(C2(c3ccc(N(C)C)cc3Cl)OC(=O)c3cc(N(C)C)ccc32)cc1` (stereo not given), 233 to 234 °C.
To `CCCC1(C)CC(=O)c2ccc(OCc3ccccc3)c(C)c2O1` (stereo not given) belongs 45 °C; to `COc1cc2c(cc1[N+](=O)[O-])N(C)C(=O)CNC2`, 145 to 149 °C; to `CC1CC(=O)NN=C1c1ccc(C2=NNC(=O)CC2C)cc1` (stereo not given), > 300 °C.
As for `O=C(O)c1ccccc1Nc1ccc(CCc2ccc(N3CC[C@@H]4CCCC[C@H]4C3)cc2)cc1`, the figure is 203 to 206 °C; as for `CCC(CC)n1c(=O)ccc2cnc(S(C)=O)nc21` (stereo not given), 111 to 114 °C.
As to `Nc1nnc(-c2ccccc2Nc2cccc(C(F)(F)F)c2)o1`, the melting point lay within 185 to 187 °C.
`CCC(COC)Nc1c([N+](=O)[O-])cc(C)c(C)c1[N+](=O)[O-]` (single isomer, unassigned; (-)) showed a melting point of 42.5 to 44 °C.
As for `CCOC(=O)c1cn(C2CCCCC2)c2cc(I)ccc2c1=O`, the figure is 169 to 171 °C; as for `CCCN(c1c2c(nc3ccccc13)CCCC2)n1cc(C)c2ccccc21`, 142 to 144 °C.
As for `C=CCCCCC1CCC(CC)(CC(=O)O)c2[nH]c3c(C)cccc3c21` (stereo not given), the figure is 111 to 112 °C.
To `CN(O)C(=O)Cc1ccc(-c2ccc(OCc3ccc4ccccc4n3)cc2)c(F)c1` belongs 153 to 155 °C; to `CSC1CCN(C(=O)CCSC(C)=O)C1C(=O)O` (stereo not given), 153 to 157 °C.
For `CCOC(=O)/C(=C/c1ccc(OC)c(OC2CCCC2)c1)c1ccncc1`, the melting point is 109 to 110 °C.
`COC(=O)c1c(C)sc(C)c1N` had a melting point of 75 to 77 °C.
As for `CC(=O)NCC(=O)NCC1(SCc2ccccc2)C2CC3CC(C2)CC1C3` (stereo not given), the figure is 132 to 134 °C; as for `CC(=NNc1ccc(C2=NNC(=O)CC2)cc1)c1ccnnc1`, 258 to 260 °C; as for `COCCOc1c(C)cc(C#CC2(O)CN3CCC2CC3)cc1C` (stereo not given), 120 °C.
To `CCOC(=O)c1cnc(-c2ccc(Cl)cc2)s1` belongs 144 to 145 °C.
Regarding `CC(C)CN1C(=O)C(CC(=O)O)OC(C)(c2ccccc2Cl)c2cc(Cl)ccc21` (stereo not given), the melting point was in the range of 153 to 154 °C.
Regarding `COCCOCCOc1ccc(NC(=O)NCc2ccc3c(c2)CN(C2CCC(=O)NC2=O)C3=O)cc1Cl` (stereo not given), the melting point fell in the range of 188 to 190 °C.
`COC(=O)c1cc(C)cnc1C1=NC(C)(C(C)C)C(=O)N1C(=O)c1ccccc1` (stereo not given) returned a melting point of 104 to 106 °C.
`CN(C(=O)Cc1ccccc1)c1ccc(OC23CC4CC(CC(C4)C2)C3)cc1` had a melting point of 89 to 91 °C.
Take `O=c1[nH]c(=O)c2c1c1oc3ccccc3oc1c1[nH]c3cc(O)ccc3c12`: the melting point is > 340 °C.
Regarding `CSCCC(=O)N(C)c1sc(-c2cncc(F)c2)nc1C#N`, the melting point was 97 to 98 °C.
To `O=C(O)c1cccc(OCc2ccc3ccccc3n2)c1` belongs 178 to 182 °C; to `Cc1nc2ccc3c(c2nc1C)C(=O)c1ccccc1C3=O`, > 400 °C.
Consider `CN1Cc2c(C(N)=O)ncn2-c2ccc(F)c(Cl)c2C1=O`, for which the melting point was 292 to 294 °C.
To `Cn1cccc1C(=O)CS(C)=O` (stereo not given) belongs 74 to 76 °C.
On to `CC(C)(C)OC(=O)CCc1ccnc(-c2nc(=O)c3ccccc3s2)c1`, for which the melting point is 136 to 137 °C.
As for `CC1C(=O)Nc2cc(N)c(N)cc21` (stereo not given), the figure is > 300 °C; as for `O=C(O)C(F)c1cccc(OCc2ccccc2Cl)c1OCc1ccccc1Cl` (stereo not given), 92 to 94 °C.
In turn, `Cc1ccc(NCc2ccc(/C=C/C(=O)O)cc2)cc1Nc1nccc(-c2cccnc2)n1` displayed a melting point of 234 to 242 °C.
For `Cc1nncn1-c1ccc(Cl)cc1C(=O)c1ccccc1Cl`, the melting point worked out at 148 °C.
`O=C1NCCc2ccc(OCCCCN3CCN(c4cccc5c4CCCC5)CC3)nc2N1` returned a melting point of 185 to 186 °C.
As for `Cc1noc(NS(=O)(=O)c2ccc(NC(=O)CN)cc2-c2ccc(CC(C)C)cc2)c1C`, the figure is 135 to 138 °C; as for `Oc1ccc2oc(-c3ccc(O)c(Cl)c3)nc2c1`, 254 to 256 °C; as for `CC(COc1ccccc1)=C1SC(=O)NC1=O`, 153 to 155 °C.
Compound `COc1ccc(Nc2ccc(OC)c3ccccc23)cc1C(=O)O` displayed a melting point of 153 to 154 °C.
For `O=C(O)C(O)=CC(=O)c1ccccc1`, the melting point lay in the range of 155 to 158 °C.
The compound `COC(=O)c1nccnc1Oc1ccccc1C(F)(F)F` registered a melting point of 83 to 85 °C.
Consider `N#CNc1ccccc1-c1ccccc1F`, for which the melting point is 68 to 69 °C.
The compound `N#Cc1cccc(CN2CCc3sc(Nc4ncc(F)cn4)nc3-c3cn[nH]c32)c1` registered a melting point of 282 to 284 °C.
For `NCCCN1CC=C(c2ccc(Cl)cc2)CC1`, the melting point was 57 to 58 °C.
In turn, `CCSc1c(C=NOC)c(=O)n(C)c(=O)n1C` yielded a melting point of 74 to 75 °C.
Compound `CC(C)(C)C(NC(=O)c1cccc(Br)c1)Nc1c(Nc2cccnc2)c(=O)c1=O` (stereo not given) returned a melting point of 244 to 245 °C.
To `O=C(Nc1ccc2c(c1)CCC(CCl)=C2)c1ccc(-c2ccc(Cl)cc2)cc1` belongs 179 to 181 °C; to `Cc1ccc(NC(=O)c2ccc(CN3CCN(C)C(=O)C3)cc2)cc1Nc1nccc(-c2cccnc2)n1`, 187 to 192 °C.
